Values of other authors as cited in patent US20240238452A1, “STAINING AGENT FOR GASTROINTESTINAL MUCOSA AND PREPARATION METHOD THEREFOR” (BEIJING COMPONT MEDICAL DEVICES CO., LTD., priority 2023, published 2024).

Key:
[1] = International Journal of Toxicology 2010
[2] = EFSA report 2009

Row | allowable daily intake (ADI) [2] [mg/kg·bw/day] | Compound | safety: acute oral, short-term skin, subchronic skin, heredity and other aspects [1]
1 |  | Cc1ccc(Nc2ccc(O)c3c2C(=O)c2ccccc2C3=O)c(S(=O)(=O)[O-])c1.[Na+] [acid violet 43] | no abnormal report
2 | 5 | O=C1/C(=C2\Nc3ccc(S(=O)(=O)[O-])cc3C2=O)Nc2ccc(S(=O)(=O)[O-])cc21.[Na+].[Na+] [indigo carmine, reference compound] | 
3 | 7 | COc1cc(S(=O)(=O)[O-])c(C)cc1N=Nc1c(O)ccc2cc(S(=O)(=O)[O-])ccc12.[Na+].[Na+] [allure red] | 
